Earlier results as cited in patent US20240252671A1, “NEODEGRADER-ANTI-CD33 ANTIBODY CONJUGATES” (priority 2021, published 2024).

What was measured:
Kasumi-6 = settings: stated as known; cited from earlier work
AML-193 = settings: stated as known; cited from earlier work

Mylotarg: a CD33-targeting ADC clinically approved for the treatment of AML
sensitivity of cell line to Mylotarg (Kasumi-6): insensitive | sensitivity of cell line to Mylotarg (AML-193): insensitive
